Assay results as given in PubChem BioAssay AID1259407 (Chemical Carcinogenesis Research Information System (CCRIS), 2018).
Activity calls are given as the source filed them. How the calls were made is not given here.

Test system: CCRIS mutagenicity, Ames/micronucleus/aberration tests
Experiment: CCRIS mutagenicity studies

## C=C(C)C
Test System: AMES SALMONELLA TYPHIMURIUM, Strain/Indicator: TA97, Metabolic Activation: HAMSTER LIVER S-9, AROCLOR 1254 (10% OR 30%), Method: DESICCATOR
  mutagenic call: inactive; negative
Test System: AMES SALMONELLA TYPHIMURIUM, Strain/Indicator: TA97, Metabolic Activation: NONE, Method: DESICCATOR
  mutagenic call: inactive; negative
Test System: AMES SALMONELLA TYPHIMURIUM, Strain/Indicator: TA97, Metabolic Activation: RAT LIVER S-9, AROCLOR 1254 (10% OR 30%), Method: DESICCATOR
  mutagenic call: inactive; negative
Test System: AMES SALMONELLA TYPHIMURIUM, Strain/Indicator: TA98, Metabolic Activation: HAMSTER LIVER S-9, AROCLOR 1254 (10% OR 30%), Method: DESICCATOR
  mutagenic call: inactive; negative
Test System: AMES SALMONELLA TYPHIMURIUM, Strain/Indicator: TA98, Metabolic Activation: NONE
  mutagenic call: inactive; negative
Test System: AMES SALMONELLA TYPHIMURIUM, Strain/Indicator: TA98, Metabolic Activation: NONE, Method: DESICCATOR
  mutagenic call: inactive; negative
Test System: AMES SALMONELLA TYPHIMURIUM, Strain/Indicator: TA98, Metabolic Activation: NONE, Method: GAS EXPOSURE
  mutagenic call: inactive; negative
Test System: AMES SALMONELLA TYPHIMURIUM, Strain/Indicator: TA98, Metabolic Activation: RAT LIVER S-9, AROCLOR 1254 (10% OR 30%), Method: DESICCATOR
  mutagenic call: inactive; negative
Test System: AMES SALMONELLA TYPHIMURIUM, Strain/Indicator: TA98, Metabolic Activation: RAT LIVER S-9, PHENOBARBITAL AND BETA-NAPHTHOFLAVONE (40%), Method: GAS EXPOSURE
  mutagenic call: inactive; negative
Test System: AMES SALMONELLA TYPHIMURIUM, Strain/Indicator: TA98, Metabolic Activation: RAT, LIVER, S-9, KC 500
  mutagenic call: inactive; negative
Test System: AMES SALMONELLA TYPHIMURIUM, Strain/Indicator: TA100, Metabolic Activation: HAMSTER LIVER S-9, AROCLOR 1254 (10% OR 30%), Method: DESICCATOR
  mutagenic call: inactive; negative
Test System: AMES SALMONELLA TYPHIMURIUM, Strain/Indicator: TA100, Metabolic Activation: NONE
  mutagenic call: inactive; negative
Test System: AMES SALMONELLA TYPHIMURIUM, Strain/Indicator: TA100, Metabolic Activation: NONE, Method: DESICCATOR
  mutagenic call: inactive; negative
Test System: AMES SALMONELLA TYPHIMURIUM, Strain/Indicator: TA100, Metabolic Activation: NONE, Method: FLASK ASSAY
  mutagenic call: inactive; negative
Test System: AMES SALMONELLA TYPHIMURIUM, Strain/Indicator: TA100, Metabolic Activation: NONE, Method: GAS EXPOSURE
  mutagenic call: inactive; negative
Test System: AMES SALMONELLA TYPHIMURIUM, Strain/Indicator: TA100, Metabolic Activation: RAT LIVER S-9, AROCLOR 1254 (10% OR 30%), Method: DESICCATOR
  mutagenic call: inactive; negative
Test System: AMES SALMONELLA TYPHIMURIUM, Strain/Indicator: TA100, Metabolic Activation: RAT LIVER S-9, PHENOBARBITAL AND BETA-NAPHTHOFLAVONE (40%), Method: GAS EXPOSURE
  mutagenic call: inactive; negative
Test System: AMES SALMONELLA TYPHIMURIUM, Strain/Indicator: TA100, Metabolic Activation: RAT, LIVER, S-9, KC 500
  mutagenic call: inactive; negative
Test System: AMES SALMONELLA TYPHIMURIUM, Strain/Indicator: TA102, Metabolic Activation: NONE, Method: FLASK ASSAY
  mutagenic call: inactive; negative
Test System: AMES SALMONELLA TYPHIMURIUM, Strain/Indicator: TA1535, Metabolic Activation: HAMSTER LIVER S-9, AROCLOR 1254 (10% OR 30%), Method: DESICCATOR
  mutagenic call: inactive; negative
Test System: AMES SALMONELLA TYPHIMURIUM, Strain/Indicator: TA1535, Metabolic Activation: NONE
  mutagenic call: inactive; negative
Test System: AMES SALMONELLA TYPHIMURIUM, Strain/Indicator: TA1535, Metabolic Activation: NONE, Method: DESICCATOR
  mutagenic call: inactive; negative
Test System: AMES SALMONELLA TYPHIMURIUM, Strain/Indicator: TA1535, Metabolic Activation: NONE, Method: FLASK ASSAY
  mutagenic call: inactive; negative
Test System: AMES SALMONELLA TYPHIMURIUM, Strain/Indicator: TA1535, Metabolic Activation: NONE, Method: GAS EXPOSURE
  mutagenic call: inactive; negative
Test System: AMES SALMONELLA TYPHIMURIUM, Strain/Indicator: TA1535, Metabolic Activation: RAT LIVER S-9, AROCLOR 1254 (10% OR 30%), Method: DESICCATOR
  mutagenic call: inactive; negative
Test System: AMES SALMONELLA TYPHIMURIUM, Strain/Indicator: TA1535, Metabolic Activation: RAT LIVER S-9, PHENOBARBITAL AND BETA-NAPHTHOFLAVONE (40%), Method: GAS EXPOSURE
  mutagenic call: inactive; negative
Test System: AMES SALMONELLA TYPHIMURIUM, Strain/Indicator: TA1535, Metabolic Activation: RAT, LIVER, S-9, KC 500
  mutagenic call: inactive; negative
Test System: AMES SALMONELLA TYPHIMURIUM, Strain/Indicator: TA1537, Metabolic Activation: NONE
  mutagenic call: inactive; negative
Test System: AMES SALMONELLA TYPHIMURIUM, Strain/Indicator: TA1537, Metabolic Activation: NONE, Method: GAS EXPOSURE
  mutagenic call: inactive; negative
Test System: AMES SALMONELLA TYPHIMURIUM, Strain/Indicator: TA1537, Metabolic Activation: RAT LIVER S-9, PHENOBARBITAL AND BETA-NAPHTHOFLAVONE (40%), Method: GAS EXPOSURE
  mutagenic call: inactive; negative
Test System: AMES SALMONELLA TYPHIMURIUM, Strain/Indicator: TA1537, Metabolic Activation: RAT, LIVER, S-9, KC 500
  mutagenic call: inactive; negative
Test System: AMES SALMONELLA TYPHIMURIUM, Strain/Indicator: TA1538, Metabolic Activation: NONE
  mutagenic call: inactive; negative
Test System: AMES SALMONELLA TYPHIMURIUM, Strain/Indicator: TA1538, Metabolic Activation: RAT, LIVER, S-9, KC 500
  mutagenic call: inactive; negative
Test System: E. COLI, Strain/Indicator: WP2 UVRA, Metabolic Activation: NONE
  mutagenic call: inactive; negative
Test System: E. COLI, Strain/Indicator: WP2 UVRA, Metabolic Activation: RAT, LIVER, S-9, KC 500
  mutagenic call: inactive; negative
Test System: E.COLI, Strain/Indicator: WP2UVRA, Metabolic Activation: NONE, Method: GAS EXPOSURE
  mutagenic call: inactive; negative
Test System: E.COLI, Strain/Indicator: WP2UVRA, Metabolic Activation: RAT LIVER S-9, PHENOBARBITAL AND BETA-NAPHTHOFLAVONE (40%), Method: GAS EXPOSURE
  mutagenic call: inactive; negative

## O=C1c2ccccc2C(=O)c2c1ccc(O[C@@H]1O[C@H](CO[C@@H]3OC[C@@H](O)[C@H](O)[C@H]3O)[C@@H](O)[C@H](O)[C@H]1O)c2O
Test System: AMES SALMONELLA TYPHIMURIUM, Strain/Indicator: TA98, Metabolic Activation: NONE, Method: PREINCUBATION
  mutagenic call: inactive; negative
Test System: AMES SALMONELLA TYPHIMURIUM, Strain/Indicator: TA98, Metabolic Activation: RAT, LIVER, S-9, PCB, Method: PREINCUBATION
  mutagenic call: inactive; negative
Test System: AMES SALMONELLA TYPHIMURIUM, Strain/Indicator: TA100, Metabolic Activation: NONE, Method: PREINCUBATION
  mutagenic call: inactive; negative
Test System: AMES SALMONELLA TYPHIMURIUM, Strain/Indicator: TA100, Metabolic Activation: RAT, LIVER, S-9, PCB, Method: PREINCUBATION
  mutagenic call: inactive; negative
Test System: UDS PRIMARY RAT HEPATOCYTES, Strain/Indicator: THY INCORP, Metabolic Activation: NONE
  mutagenic call: active; positive

## CCc1c(O)c(O)c2c(c1O)C(=O)C(O)=C(O)C2=O
Test System: AMES SALMONELLA TYPHIMURIUM, Strain/Indicator: TA98, Metabolic Activation: MICROSOMAL FRACTION, FULLY ACTIVATED, AND RAT LIVER S-9, Method: STANDARD PLATE
  mutagenic call: active; positive
Test System: AMES SALMONELLA TYPHIMURIUM, Strain/Indicator: TA98, Metabolic Activation: MICROSOMAL FRACTION, NON-FULLY ACTIVATED, Method: STANDARD PLATE
  mutagenic call: active; positive
Test System: AMES SALMONELLA TYPHIMURIUM, Strain/Indicator: TA100, Metabolic Activation: MICROSOMAL FRACTION, FULLY ACTIVATED, AND RAT LIVER S-9, Method: STANDARD PLATE
  mutagenic call: active; positive
Test System: AMES SALMONELLA TYPHIMURIUM, Strain/Indicator: TA100, Metabolic Activation: MICROSOMAL FRACTION, NON-FULLY ACTIVATED, Method: STANDARD PLATE
  mutagenic call: active; positive
Test System: AMES SALMONELLA TYPHIMURIUM, Strain/Indicator: TA1537, Metabolic Activation: MICROSOMAL FRACTION, FULLY ACTIVATED, AND RAT LIVER S-9, Method: STANDARD PLATE
  mutagenic call: active; positive
Test System: AMES SALMONELLA TYPHIMURIUM, Strain/Indicator: TA1537, Metabolic Activation: MICROSOMAL FRACTION, NON-FULLY ACTIVATED, Method: STANDARD PLATE
  mutagenic call: inactive; negative

## OC1C2OC2=C2C=c3ccc4cccc5ccc(c3c54)C2C1O (centres undefined)
Test System: CHINESE HAMSTER V-79, Strain/Indicator: V-79/8-AZAGUANINE, Metabolic Activation: NONE, Method: STANDARD PLATE
  mutagenic call: active; positive
